Where two headings read alike, the source gives them in different places.
Experiments:
virus HIV = type: cell-based, virus HIV 1; details: for production virale des lymphocytes périphériques infectés: added at the time of infection, figure 3
Excerpt: Ce test a été réalisé comme suit.
Les lymphocytes humains ont été isolés sur gradient de Ficoll à partir du sang périphérique d'un donneur séronégatif. Préalablement au traitement, ils ont été stimulés par la phytohémagglutinine p (PHA-p) (Difco) pendant 3 jours. Ils sont ensuite maintenus en culture dans un milieu RPMI sans glutamine (GIBCO, Réf. 041.01870M, contenant 10 % de sérum de veau fétal (FLOW, Réf. 29.101.711), 1 % de glutamine (GIBCO, Réf. 043.05030H), 1 % d'une solution d'antibiotiques (GIBCO, PSN, Réf. 043.05640H), 10 % d'une solution d'interleukine 2 (BIOTEST, Réf. 81.1020), et […] de polybrène (SIGMA, Réf. 36F.3686 P. 4515).
Du trichlorhydrate de BD 40 (sel ci-après appelé BD 40) est ajouté aux doses non toxiques de 3,2 jusqu'à 25 ng/ml en même temps que l'infection virale. La production du virus dans le surnageant est mesurée par l'activité réverse transcriptase après concentration des cellules infectées par centrifugation.
Les résultats obtenus figurent sur les courbes de la figure 3 qui donne l'activité de transcriptase inverse (RT en ordonnées) en fonction du temps pour des quantités données de BD 40.

[1] = biological target: T1, réverse transcriptase du virus HIV (Human immunodeficiency virus type 1 group M subtype B, UniProt P04585); experiment: Clinical trial: reverse transcriptase activity in blood cells of treated AIDS patients; type: in vivo
T1 construct: mesures de l'activité réverse transcriptase (RT) dans les cellules sanguines; from tissue; host or cells: blood cells of AIDS patients treated with BD 40
Method: Lors d'un essai clinique chez 12 malades souffrant d'un SIDA avéré avec sarcome de Kaposi traités par des injections de trichlorhydrate de BD 40 en perfusion à des doses comprises entre 50 et 300 mg/m²/jour par cures de 3 jours consécutifs à intervalles de 3 semaines, des mesures de l'activité réverse transcriptase (RT) dans les cellules sanguines ont été pratiquées avant administration et aux 4e et 15e jours après le début de chaque cure.
La technique de mesure est la même que celle utilisée dans les tests II et III ci-dessus. Les résultats obtenus sont les suivants : - 8 cures sont évaluables à l'égard des critères adoptés, c'est-à-dire dans la mesure où l'activité réverse transcriptase a été mesurable pour le malade considéré et où sa valeur au jour 4 de la cure est encadrée par des valeurs connues au jour 15 de la cure précédente et au jour 15 de la cure considérée; - sur ces 8 cures évaluables, dans 7 cas la valeur au jour 4 est inférieure aux valeurs qui l'encadrent indiquant l'existence d'un inhibition nette de la réverse transcriptase; - sur ces 7 cas, dans 4 d'entre eux l'activité réverse transcriptase est ramenée à 0 (ou à une valeur négligeable, non significativement différente de 0); - sur ces 7 cas, si l'on normalise les valeurs obtenues en les exprimant en % de la valeur la plus élevée mesurée pour le malade considéré, les moyennes obtenues sont les suivantes : - RT au J15 de la cure précédente : 72,3 - RT au J4 de la […] : 9,7 - RT au J15 de la cure considérée : 62,4 l'inhibition est donc très évidente au 4e jour de la cure; - ces 7 cas sont obtenus aux doses suivantes (en mg/m2/administration) 2 fois à 50, 3 fois à 200, 1 fois à 250 et 1 fois à 300.

virus HIV 1 [2] = experiment: Infectivity test on PHA-stimulated peripheral lymphocytes (viral production followed by RT activity); type: cell-based; details: 12,5 ng/ml
Excerpt: Les lymphocytes obtenus après stimulation à la PHA (Phytohémagglutinine) de cellules issues d'une cytaphérèse, ont été infectés par une dilution appropriée de virus HIV 1 afin d'obtenir un pic de production virale aux environs du quinzième jour après infection. Différentes doses du BD 40 ont été ajoutées au milieu de culture au moment de l'infection et pendant toute la culture afin de déterminer les doses toxiques et protectrices.
Pour déterminer le mécanisme d'action du composé, celui-ci a été ajouté à la culture soit pendant une période de préincubation des cellules avant infection, soit pendant toute la période de culture suivant l'infection.
Le suivi de la production virale des lymphocytes a été réalisé par dosage de l'activité de la transcriptase inverse dans la culture tous les 3 ou 4 jours.
Les résultats obtenus, avec le BD 40 à la concentration de 12,5 ng/ml, figurent sur les différentes courbes de la figure 2 qui expriment l'activité de la transcriptase inverse (RT en ordonnées) en fonction du temps en jours. • Fig. 2a : BD 40 ajouté pendant la période de préincubation des cellules avant infection. • Fig. 2b : BD 40 ajouté pendant la culture qui suit l'infection. • Fig. 2c : BD 40 ajouté à la culture, uniquement après l'infection. • Fig. 2d : Pas de BD 40. Contrôle HIV 1.

[3] = tested on: fibroblastes murins NIH - 3T3; details: 24 h treatment, NIH - 3T3 fibroblasts; read-out: concentrations affecting viabilité et morphologie des cellules de manière irréversible; cited from earlier work
[4] = tested on: lignée cellulaire murine D55; details: 24 h treatment, D55 cells; read-out: concentrations affecting viabilité et morphologie des cellules de manière irréversible; cited from earlier work
[5] = biological target: T2, transcriptase inverse du virus HIV 1 (Human immunodeficiency virus type 1 group M subtype B, UniProt P04585); experiment: Reverse transcriptase assay (direct enzyme inhibition, synthetic primer, 3H-labelled substrate); type: biochemical; details: figure 1
T2 construct: transcriptase inverse du virus HIV 1
Excerpt: Le trichlorhydrate de BD 40 (sel ci-après appelé "BD 40"), obtenu par réaction de la base BD 40 en phase aqueuse avec une solution aqueuse d'acide chlorhydrique, a été testé dans un premier temps en tant qu'inhibiteur direct sur l'activité enzymatique de la transcriptase inverse du virus HIV 1.
L'activité enzymatique a été testée en utilisant une amorce synthétique et un substrat radiomarqué au H³ "in vitro" en présence de différentes doses du BD 40. La quantité de matériel radiomarqué précipité, exprimée en coups par minute, est proportionnelle à l'activité de la transcriptase inverse.
Les résultats obtenus figurent sur le graphe de la figure 1, sur laquelle on a porté en ordonnées, la quantité de matériel radiomarqué en coups par minute (RT en cpm) et en abscisses les quantités de BD 40 testées.

virus HIV 1 [6] = type: cell-based
Excerpt: Les macrophages ont été isolés à partir du sang périphérique par adhérence. On les a infectés par du virus HIV 1 (de 5000 à 25000 cpm (RT en cpm par ml)). 3 à 7 jours après, les macrophages ont été éclatés par congélation/décongélation et le virus a été révélé par une coculture avec une lignée lymphoblastoïde (CEM ou lymphocytes du sang périphérique).
Différentes doses de trichlorhydrate de BD 40 (ci-après BD 40) ont été testées, le produit étant ajouté au milieu de culture au moment de l'infection.

[7] = mean of 7 cases, normalised values

Structure (SMILES): CCN(CC)CCCNc1nccc2c(C)c3[nH]c4ccncc4c3cc12 [BD 40]
- toxicity of doses for the lymphocyte culture (virus HIV): non toxiques
- production virale des lymphocytes périphériques infectés (virus HIV; 25 ng/ml to 6,25 ng/ml): inhibition très importante
- production virale des lymphocytes périphériques infectés (virus HIV; 3,12 ng/ml): un pic de production virale apparait d'un niveau inférieur à celui obtenu en l'absence d'inhibiteur
- virus produit (virus HIV; highest non-toxic doses, up to day 42): absence totale de virus produit jusqu'au jour 42
- clinical tolerance of the doses ([1]; 50, 200, 250 and 300 mg/m2/administration, patients): cliniquement parfaitement tolérées
- RT au J4 de la cure précédente [1, 7]: 9,7 % de la valeur la plus élevée mesurée pour le malade considéré
- RT au J15 de la cure considérée [1, 7]: 62,4 % de la valeur la plus élevée mesurée pour le malade considéré
- RT au J15 de la cure précédente [1, 7]: 72,3 % de la valeur la plus élevée mesurée pour le malade considéré
- cas où la valeur au jour 4 est inférieure aux valeurs qui l'encadrent (inhibition nette de la réverse transcriptase) ([1]; out of 8 evaluable courses, patients with AIDS and Kaposi sarcoma, infusion 50-300 mg/m²/jour, 3-day courses every 3 weeks): 7 cas
- cas où l'activité réverse transcriptase est ramenée à 0 (ou à une valeur négligeable) ([1]; out of the 7 cases with inhibition): 4
- production virale de lymphocytes infectés (virus HIV 1 [2]; added to the culture only after infection (Fig. 2c)): un pic de production virale qui reste d'un niveau plus faible que le pic obtenu en l'absence d'inhibiteur
- production virale de lymphocytes infectés (virus HIV 1 [2]; present also during the culture after infection (Fig. 2b)): Le même résultat
- production virale de lymphocytes infectés (virus HIV 1 [2]; present during 1 h preincubation before infection (Fig. 2a)): inhiber totalement la production virale
- MCC [3]: ≥ 100 nM
- MCC [4]: ≥ 100 nM
- activité de la transcriptase inverse du virus HIV ([5]; BD 40 concentrations 1 mg/ml to 50 µg/ml): totalement inhibée
- activité de l'enzyme ([5]; from BD 40 concentration 5 µg/ml): du même niveau qu'en l'absence d'inhibiteur
- toxicity of doses for the macrophage culture (virus HIV 1 [6]): non toxiques
- retard d'apparition du virus (virus HIV 1 [6]; 10 and 15 ng/ml, added at the time of infection): 2 jours
- réplication du virus (virus HIV 1 [6]; macrophages treated with BD 40, RT activity after coculture): inhibition partielle
